{
  "source": "patent US8109064B2",
  "about": "“Methods and systems for contact lens sterilization” (Menicon Signapore Pte Ltd., priority 2006, dated 2012)",
  "origin": "cited, not measured here",
  "details": "in vivo",
  "data": [
    {"substance": "polyhexamine biguanide [PHMB]", "values": [
      {"measurement": "corneal staining", "result": "implicated in corneal staining"}
    ]}
  ]
}
